Values quoted from earlier work, collected in patent US4820521A, “Sustained absorption pharmaceutical composition” (priority 1983, dated 1989).

Columns and labels:
[1] = versus caffeine
[2] = human, in vivo
[3] = tested on: involuntary muscle; conditions: versus theobromine and caffeine

SMILES: Cn1c(=O)c2[nH]cnc2n(C)c1=O [Theophylline, 1,3-dimethylxanthine]
- diuretic action (in words) [1]: stronger than that of caffeine is of short duration
- apparent biological half-life [2]: 4-9 hours
- minimum effective plasma concentration (in vivo): about 5 mcg/ml
- average therapeutic concentration (plasma): about 10 mcg/ml
- therapeutic range of concentration (plasma): 10 to 20 µg/mL
- toxicity of levels above 20 mcg/ml (plasma levels above 20 mcg/ml): toxic
- effect of levels below 10 mcg/ml (plasma levels below 10 mcg/ml): ineffective
- relaxant of involuntary muscle (in words) [3]: more powerful relaxant of involuntary muscle than either theobromine or caffeine
